According to PMC6368403, “Identification of a bilirubin receptor that may mediate a component of cholestatic itch” (eLife, 2019):
Where “and” joins values, the source holds several entries; their conditions need not be identical. Identical values can stand only once.

Experiments:
MRGPRA1 = target: T1, MRGPRA1 (Mus musculus, UniProt Q91WW5); assay: Ca2+ imaging and concentration-Ca2+ response (EC50) in HEK293 cells expressing MRGPRA1; assay type: cell-based; parameters: Ca2+ response: unit not given here; conditions: for Ca2+ response (concentration-response curve): MRGPRA1, triplicate wells (Fig 2D); for Ca2+ response: bilirubin, 3 replicate columns
T1 construct: expressed in transfected cells
T1 sequence (Q91WW5 1-304): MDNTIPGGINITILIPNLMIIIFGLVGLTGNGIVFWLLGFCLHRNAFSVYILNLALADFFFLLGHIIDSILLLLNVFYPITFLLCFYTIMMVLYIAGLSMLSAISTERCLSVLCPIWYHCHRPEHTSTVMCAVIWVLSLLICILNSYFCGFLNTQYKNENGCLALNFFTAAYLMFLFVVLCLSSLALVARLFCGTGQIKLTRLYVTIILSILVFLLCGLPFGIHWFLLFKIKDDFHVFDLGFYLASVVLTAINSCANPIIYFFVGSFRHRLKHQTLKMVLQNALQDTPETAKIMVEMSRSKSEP
Method: (§1) All cultured cells were maintained in DMEM supplemented with 10% FBS and 1% Penicillin/Streptomycin at 37°C, 5% CO2. All data included were generated from cells tested for mycoplasma and found to be negative. Cells were imaged in calcium imaging buffer (CIB; 10 mM HEPES, 1.2 mM NaHCO3, 130 mM NaCl, 3 mM KCl, 2.5 mM CaCl2, 0.6 mM MgCl2, 20 mM glucose, and 20 mM sucrose at pH 7.4 and 290–300 mOsm). To monitor changes in intracellular [Ca^2+] ([Ca^2+]i), cells were loaded with either Fura 2-AM (HEK293 cells) or Fluo 4-AM (DRG neurons and mast cells) for 30 min in the dark at 37°C in CIB just prior to imaging. With Fura 2-AM, emission at 510 nm was monitored from excitation at both 340 nm and 380 nm. With Fluo 4-AM, emission at 520 nm was monitored from excitation at 488 nm. Cells were identified as responding if the intracellular [Ca^2+] rose by either 50% compared to baseline or 50% compared to the [Ca^2+]i change assayed during addition of 50 mM KCl (neurons only). Damaged, detached, high-baseline, and motion-activated cells were excluded from analysis.
(§2) In initial screens, HEK293 cells stably expressing the murine G-protein alpha-subunit Gα15, a unique Gα protein that non-selectively couples a large variety of GPCRs to phospholipase C ^30, were plated on poly-D-lysine-coated coverslips and transiently transfected with constructs encoding the MRGRPR of interest. 12–24 hr later, cells were loaded with the Fura 2-AM. Unless otherwise specified, compounds were perfused into the imaging chamber for approximately thirty seconds after a baseline period was established. Response was then monitored at 5 s intervals for an additional 60 s.
(§3) HEK293 cells stably expressing either MRGPRA1, MRGPRX4, and MRGRPC11 were seeded in poly-D-lysine-coated 96-well plates at 10,000 cells/well. Cells were loaded with Fura 2–AM, washed twice, and maintained in CIB. Haem metabolites were freshly dissolved in DMSO in dim light and then diluted into a buffer comprised of 20 mM Tris and 150 mM NaCl at pH 8.8. Potential changes in pH were evaluated prior to each experiment. EC50 values were determined from dose-responses performed in triplicate, repeated 2–4 times. To determine potential antagonism by QWF against bilirubin, cells were treated with varying doses of QWF for 1 min in CIB prior to application of agonist.
(§4) HEK293 stable cell lines expressing GFP-tagged MRGPRA3, MRGPRC11, MRGPRD, MRGPRX1, and MRGPRX2 were generated in previously described reports ([Liu et al., 2009]; [Liu et al., 2012]; [McNeil et al., 2015]). Briefly, plasmids containing the receptor of interest were transfected into HEK cells using Lipofectamine 3000. After 3 days, cells were then selected using 0.5 mg/mL G418. After 3 weeks, monoclonal colonies were established and each the highest expressing clones were identified. For this study, Mrgpra1 and MRGPRX4 were inserted into pEGFP-N1 and transfected into HEK293 cells. MRGPR-positive cells were selected using 0.5 mg/mL G418 for three weeks, after which GFP-positive cells were sorted by FACS and monoclonally expanded. Two lines expressing similar levels of MRGPRA1 and MRGPRX4, as measured by GFP fluorescence, were selected for study.

MRGPRX4 [1] = target: T2, MRGPRX4 (Homo sapiens, UniProt Q96LA9); assay: Ca2+ imaging and concentration-Ca2+ response (EC50) in HEK293 cells expressing MRGPRX4; assay type: cell-based; conditions: for Ca2+ response (concentration-response curve): MRGPRX4, triplicate wells (Fig 2I)
T2 construct: expressed in transfected cells
Method: as §1, §2, §3, §4

MRGPRX4 [2] = target: T2, MRGPRX4; assay: Microscale thermophoresis binding to MRGPRX4; parameters: microscale thermophoresis response (binding isotherm), mean: unit not given here; conditions: mean of n=3, Fig 2-J
Method: Binding isotherms for MRGPRA1, MRGPRX4, and MRGRPC11 towards various ligands were determined by microscale thermophoresis with the NanoTemper monolith NT.115 instrument ([Duhr and Braun, 2006]). Ligands were pre-incubated with 10 µM of the GFP-tagged receptor of interest for 5 min at room temperature in binding buffer (20 mM Tris and 150 mM NaCl at pH 8.8). Receptors were crudely purified as a membrane fraction from cells stably expressing the receptor ([Vasavda et al., 2017]). Haem metabolites were freshly dissolved in 0.1 M NaOH in dim light and then diluted into assay buffer. Lyophilized BAM8-22 was dissolved in binding buffer. The pH of each ligand was evaluated prior to incubation with a receptor. Samples were loaded into NT.115 Hydrophobic-Treated Capillaries from NanoTemper. Microscale thermophoretic experiments were executed using 20% LED power and 15% MST power. KDs were calculated using the law of mass action with data from three independent experiments. Binding between bilirubin and receptors was evaluated purely thermophoretically, whereas binding between BAM8-22 and MRGPRC11 was evaluated by T-Jump. Samples with dramatic deviations in initial fluorescence were excluded.

T2 sequence (Q96LA9 whole entry): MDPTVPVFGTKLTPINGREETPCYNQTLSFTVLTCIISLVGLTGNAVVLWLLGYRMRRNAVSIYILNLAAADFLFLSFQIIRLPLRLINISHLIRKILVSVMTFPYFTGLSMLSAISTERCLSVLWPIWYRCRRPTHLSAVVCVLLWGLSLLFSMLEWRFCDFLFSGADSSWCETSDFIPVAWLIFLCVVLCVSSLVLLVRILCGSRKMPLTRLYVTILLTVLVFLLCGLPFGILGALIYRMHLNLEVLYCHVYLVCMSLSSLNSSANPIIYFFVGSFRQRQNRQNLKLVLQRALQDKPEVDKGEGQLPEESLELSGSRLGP

Calcium response / activation of MRGPRA1-expressing cells (MRGPRA1; 50 µM bilirubin, 30 µM FMRF): exhibited a calcium response | Ca2+ response (concentration-response curve) (MRGPRA1; [Ligand] 3.90625e-6 M): 1.244 (2×) and 1.27 | Ca2+ response (concentration-response curve) (MRGPRA1; [Ligand] 7.8125e-6 M): 1.285 and 1.272 and 1.244 | Ca2+ response (concentration-response curve) (MRGPRA1; [Ligand] 1.5625e-5 M): 1.239 (2×) and 1.229 | Ca2+ response (concentration-response curve) (MRGPRA1; [Ligand] 3.125e-5 M): 1.214 and 1.216 and 1.186 | Ca2+ response (concentration-response curve) (MRGPRA1; [Ligand] 6.25e-5 M): 1.236 and 1.293 and 1.259 | Ca2+ response (concentration-response curve) (MRGPRA1; [Ligand] 0.000125 M): 1.409 and 1.368 and 1.342 | Ca2+ response (concentration-response curve) (MRGPRA1; [Ligand] 0.00025 M): 1.512 and 1.513 and 1.452 | Ca2+ response (concentration-response curve) (MRGPRA1; [Ligand] 0.0005 M): 1.582 and 1.563 and 1.522 | Ca2+ response (MRGPRA1; [Ligand] (M) -3 (log scale)): 92.1113 and 105.486 and 102.402 | Ca2+ response (MRGPRA1; [Ligand] (M) -3.30103 (log scale)): 69.422 and 70.1483 and 63.5847 | Ca2+ response (MRGPRA1; [Ligand] (M) -3.60206 (log scale)): 71.8089 and 75.8019 and 75.1545 | Ca2+ response (MRGPRA1; [Ligand] (M) -3.90309 (log scale)): 61.2591 and 54.8317 and 55.4389 | Ca2+ response (MRGPRA1; [Ligand] (M) -4.20412 (log scale)): 49.8998 and 18.4414 and 32.057 | Ca2+ response (MRGPRA1; [Ligand] (M) -4.50515 (log scale)): 6.418 and 7.051 and 1.245 | Ca2+ response (MRGPRA1; [Ligand] (M) -4.80618 (log scale)): 27.9538 and 0 (2×) | Ca2+ response (MRGPRA1; [Ligand] (M) -5.10721 (log scale)): 34.8054 and 0 (2×) | Calcium response / activation of MRGPRX4-expressing cells (MRGPRX4 [1]): only MRGPRX4-expressing cells responded | Ca2+ response (concentration-response curve) (MRGPRX4 [1]; [Ligand] 1.95313e-6 M): 0.6657 and 0.5292 and 0.882 | Ca2+ response (concentration-response curve) (MRGPRX4 [1]; [Ligand] 3.90625e-6 M): 0.5596 and 0.9735 and 0.9102 | Ca2+ response (concentration-response curve) (MRGPRX4 [1]; [Ligand] 7.8125e-6 M): 0.7828 and 0.7465 and 0.8173 | Ca2+ response (concentration-response curve) (MRGPRX4 [1]; [Ligand] 1.5625e-5 M): 0.5886 and 0.7131 and 0.5739 | Ca2+ response (concentration-response curve) (MRGPRX4 [1]; [Ligand] 3.125e-5 M): 0.9259 and 0.9222 and 0.8162 | Ca2+ response (concentration-response curve) (MRGPRX4 [1]; [Ligand] 6.25e-5 M): 1.178 and 1.234 and 1.122 | Ca2+ response (concentration-response curve) (MRGPRX4 [1]; [Ligand] 0.000125 M): 1.451 and 1.464 and 1.382 | Ca2+ response (concentration-response curve) (MRGPRX4 [1]; [Ligand] 0.00025 M): 1.643 and 1.595 and 1.524 | microscale thermophoresis response (binding isotherm), mean (MRGPRX4 [2]; [Ligand] 3.05e-8 M): 7.584 | microscale thermophoresis response (binding isotherm), mean (MRGPRX4 [2]; [Ligand] 6.1e-8 M): 6.444 | microscale thermophoresis response (binding isotherm), mean (MRGPRX4 [2]; [Ligand] 1.221e-7 M): 6.442 | microscale thermophoresis response (binding isotherm), mean (MRGPRX4 [2]; [Ligand] 2.441e-7 M): 4.051 | microscale thermophoresis response (binding isotherm), mean (MRGPRX4 [2]; [Ligand] 4.883e-7 M): -2.46 | microscale thermophoresis response (binding isotherm), mean (MRGPRX4 [2]; [Ligand] 9.766e-7 M): -5.393 | microscale thermophoresis response (binding isotherm), mean (MRGPRX4 [2]; [Ligand] 1.9531e-6 M): 5.84 | microscale thermophoresis response (binding isotherm), mean (MRGPRX4 [2]; [Ligand] 3.9063e-6 M): 1.017 | microscale thermophoresis response (binding isotherm), mean (MRGPRX4 [2]; [Ligand] 7.8125e-6 M): 9.66 | microscale thermophoresis response (binding isotherm), mean (MRGPRX4 [2]; [Ligand] 1.5625e-5 M): 19.4349 | microscale thermophoresis response (binding isotherm), mean (MRGPRX4 [2]; [Ligand] 3.125e-5 M): 35.6519 | microscale thermophoresis response (binding isotherm), mean (MRGPRX4 [2]; [Ligand] 6.25e-5 M): 68.0309 | microscale thermophoresis response (binding isotherm), mean (MRGPRX4 [2]; [Ligand] 0.000125 M): 97.8035 | microscale thermophoresis response (binding isotherm), mean (MRGPRX4 [2]; [Ligand] 0.00025 M): 117.52 | microscale thermophoresis response (binding isotherm), mean (MRGPRX4 [2]; [Ligand] 0.0005 M): 123.698 | microscale thermophoresis response (binding isotherm), mean (MRGPRX4 [2]; [Ligand] 0.001 M): 119.096
Structure (SMILES): C=CC1=C(C)/C(=C/c2[nH]c(Cc3[nH]c(/C=C4\NC(=O)C(C)=C4C=C)c(C)c3CCC(=O)O)c(CCC(=O)O)c2C)NC1=O [bilirubin, bilirubin IXα]
